Assay results from patent US20250206779A1, “ANGIOTENSIN-(1-9) ANALOGUE BASED ON D AMINO ACIDS, PHARMACEUTICAL COMPOSITIONS AND USES THEREOF” (UNIVERSIDAD DE CHILE, priority 2021, published 2025).
Where a SMILES comes first, the peptide text is derived from it. [ ]: non-standard residue; d: D form.

Columns and labels:
[1] = system: adult rat cardiac fibroblasts; assay: Cardiac fibroblast proliferation, cell count in Neubauer chamber; assay type: cell-based; settings: DMEM F-12 5% FBS, 24 h, trypan blue cell count
Description: Male Sprague-Dawley rats (250-300 g) were anesthetized with ketamine-xylazine (66 and 1.6 mg/kg i.p., respectively). Adult rat cardiac fibroblasts were isolated by retrograde aortic perfusion. Briefly, hearts were digested with collagenase type B solution for 1 h, and cells were centrifuged at 500 rpm for 2 min. The supernatant, mainly adult rat cardiac fibroblasts, was centrifuged at 1000 rpm for 10 min, resuspended in Dulbecco's Modified Eagle Medium: Nutrient Mixture F-12 (DMEM F-12) plus 15% fetal bovine serum (FBS) and then seeded in nontreated culture dishes during 3 h. Cells were washed with phosphate buffered saline to eliminate debris and nonadherent cells. Adult rat cardiac fibroblasts were used at passage one and seeded on 60 mm cell culture dishes in DMEM F-12 plus 10% FBS and incubated at […] for 3 h. To synchronize cells, they were washed and incubated in DMEM F-12 (without serum, 0% FBS) for 24 h before experimentation. Cell proliferation was determined in cardiac fibroblasts incubated for 24 h with and without retro-inverse angiotensin-(1-9) in DMEM F-12 5% FBS. Cells were trypsinized and cell number was determined using trypan blue method in a Neubauer chamber.

[2] = system: spontaneously hypertensive rats (SHR); assay: Blood pressure in spontaneously hypertensive rats; assay type: in vivo, rat; settings: SHR, 300, 600, 1200 ng/kg/min, osmotic minipumps, 14 days
Description: Experimental animal model. All procedures were performed in accordance with the Guide for the Care and Use of Laboratory Animals published by the U.S. National Institutes of Health (NIH Publication 85 23, 1985) and approved by our Institutional Bioethics Committee. The animals were housed under the continuous professional monitoring of the Medical Veterinary staff in the animal facility of the Pontificia Universidad Católica de Chile, under the following conditions: 12-h light-dark cycle; 21° C. ambient temperature; 50% humidity; adequate ventilation; noise-free environment; and food and water ad libitum. Male spontaneously hypertensive rats (SHR, age 12 weeks) and normotensive Wistar Kyoto rats (WKY, 12 weeks age) were used. […] Systolic blood pressure (SBP), diastolic blood pressure (DBP) and body weight (BW) were measured at the end of the treatment period and the animals were then sacrificed.
Hemodynamic evaluations. SBP and DBP were measured twice per week by a researcher blinded to study group, using a CODA 2 noninvasive pressure device with volume-pressure recording (Kent Scientific Corporation, Torrington, CT, USA). […]

[3] = system: neonatal rat ventricular myocytes (NRVM); assay: Cardiomyocyte death by simulated ischemia/reperfusion (LDH release, procaspase 3 cleavage); assay type: cell-based
Description: Neonatal rat ventricular myocytes (NRVM) were isolated from one- to three-day-old Sprague Dawley rats. Cells were pre-plated to discard non-myocyte cells and the myocyte-enriched fraction was plated on gelatin-precoated 35 mm dishes and grown in DMEM/M199 (4:1) medium with 10% (w/v) fetal bovine serum (FBS) and […] bromodeoxyuridine for 24 h before the experiments. Ischemia was induced by incubating the cardiomyocytes in ischemia-mimicking solution (ischemic medium) containing HEPES 5 mM, 2-deoxy-D-glucose 10 mM, NaCl 139 mM, KCl 12 mM, MgCl2 0.5 mM, CaCl2 1.3 mM and lactic acid 20 mM, pH 6.2, under O2<1%, 5% CO2 and 95% nitrogen at 37° C. for 8 h. Subsequently for simulated reperfusion, ischemia-mimicking solution was replaced by DMEM/M199 (4:1) containing 10% (w/v) FBS and NRVM were incubated for 16 h in 95% air and 5% CO2. Parallel NRVM were assigned to a control group which was exposed to normoxic conditions in a control medium containing (in mM) 5 HEPES 5 mM, D-glucose 23 mM, NaCl 139 mM, KCl 4.7 mM, MgCl2 0.5 mM, CaCl2 1.3 mM, pH 7.4 under 95% air and 5% CO2 for 8 h. Then, control medium was replaced with DMEM/M199 (4:1) containing 10% (w/v) FBS under 95% air and 5% CO2 for 16 h.
For the evaluation of necrosis, the activity of lactate dehydrogenase (LDH) was measured spectrophotometrically at 490 nm in samples of the culture medium after normoxia (control) and sl/R both at 8 h and 16 h, using the kit CytoTox 96® Non-Radioactive Cytotoxicity Assay, Promega (Corp., Madison, WI, USA), according to the manufacturer's instructions. Apoptosis was evaluated by measuring procaspase 3 cleavage to caspase 3 by western blotting.

CC[C@@H](C)[C@@H](NC(=O)[C@@H](Cc1c[nH]cn1)NC(=O)[C@H]1CCCN1C(=O)[C@@H](Cc1ccccc1)NC(=O)[C@H](N)Cc1c[nH]cn1)C(=O)N[C@H](Cc1ccc(O)cc1)C(=O)N[C@@H](C(=O)N[C@H](CCCNC(=N)N)C(=O)N[C@H](CC(=O)O)C(=O)O)C(C)C [retro-inverse angiotensin-(1-9), NH2-^DH^DF^DP^DH^DI^DY^DV^DR^DD-COOH] (H-[dH][dF][dP][dH][dI][dY][dV][dR][dD]-OH) was tested, and the fibroblast proliferation [1] was “inhibited fibroblast proliferation”, the “diastolic blood pressure (DBP)” value [2] was “reduced SBP and DBP in a dose-dependent manner” and the “systolic blood pressure (SBP)” value [2] was “reduced SBP and DBP in a dose-dependent manner”. For the same compound, the “cardiomyocyte apoptosis induced by ischemia reperfusion (procaspase 3 cleavage)” value ([3]; 10 μM peptide, western blotting) was “inhibited”, the “cardiomyocyte necrosis induced by ischemia reperfusion (LDH release)” value ([3]; 1 and 10 μM peptide) was “Significative necrosis inhibition” and the “cardiomyocyte necrosis induced by ischemia reperfusion (LDH release)” value ([3]; simulated ischemia 8 h / reperfusion 16 h) was “inhibited in a dose response manner”.
